Experimental data from ChEMBL document CHEMBL5338783, “Discovery of an Anti-TNF-α 9-mer Peptide from a T7 Phage Display Library for the Treatment of Inflammatory Bowel Disease” (J Med Chem, 2023).
Calls of active or inactive are those of the source. No cut-off for these calls is given here. Peptide text beside a SMILES is read from it.

Molecular target: T1, Tumor necrosis factor (Homo sapiens, UniProt P01375)
Assay: Binding affinity to recombinant TNF-alpha (unknown origin) assessed as dissociation constant incubated for 10 mins by MST assay
Settings: not given

T1 sequence (P01375 whole entry): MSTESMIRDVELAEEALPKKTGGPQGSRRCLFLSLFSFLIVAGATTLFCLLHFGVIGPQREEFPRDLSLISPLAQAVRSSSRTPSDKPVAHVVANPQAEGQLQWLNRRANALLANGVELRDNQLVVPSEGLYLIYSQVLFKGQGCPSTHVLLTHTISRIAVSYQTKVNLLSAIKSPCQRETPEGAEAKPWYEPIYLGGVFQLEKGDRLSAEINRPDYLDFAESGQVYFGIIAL

| Structure (SMILES) | Kd |
| --- | --- |
| C[C@H](N)C(=O)N[C@@H](CS)C(=O)N[C@@H](Cc1c[nH]cn1)C(=O)N[C@@H](C)C(=O)N[C@@H](C)C(=O)N[C@@H](C)C(=O)N1CCC[C@H]1C(=O)N[C@H](C(=O)N[C@@H](CCCNC(=N)N)C(=O)O)[C@@H](C)O (H-ACHAAAPTR-OH) | 563 µM |
| C[C@H](N)C(=O)N[C@@H](CS)C(=O)N[C@@H](Cc1c[nH]cn1)C(=O)N[C@@H](C)C(=O)N[C@@H](Cc1c[nH]c2ccccc12)C(=O)N[C@@H](C)C(=O)N1CCC[C@H]1C(=O)N[C@@H](C)C(=O)N[C@@H](CCCNC(=N)N)C(=O)O (H-ACHAWAPAR-OH) | 18 µM |
| C[C@H](N)C(=O)N[C@@H](CS)C(=O)N[C@@H](Cc1c[nH]cn1)C(=O)N[C@@H](C)C(=O)N[C@@H](Cc1c[nH]c2ccccc12)C(=O)N[C@@H](C)C(=O)N[C@@H](C)C(=O)N[C@H](C(=O)N[C@@H](CCCNC(=N)N)C(=O)O)[C@@H](C)O (H-ACHAWAATR-OH) | 9.06 µM |
| C[C@H](N)C(=O)N[C@@H](CS)C(=O)N[C@@H](C)C(=O)N[C@@H](C)C(=O)N[C@@H](Cc1c[nH]c2ccccc12)C(=O)N[C@@H](C)C(=O)N1CCC[C@H]1C(=O)N[C@H](C(=O)N[C@@H](CCCNC(=N)N)C(=O)O)[C@@H](C)O (H-ACAAWAPTR-OH) | 230 µM |

Molecular target: T1, Tumor necrosis factor
Assay: Binding affinity to recombinant TNF-alpha (unknown origin) at 488.3 to 500 uM incubated for 10 mins by MST assay
Settings: dose 488.3-500 µM

| Structure (SMILES) | Activity |
| --- | --- |
| CC[C@H](C)[C@H](NC(=O)[C@H](CCCCN)NC(=O)[C@H](CCCCN)NC(=O)[C@H](C)N)C(=O)N[C@H](C(=O)N[C@@H](CC(C)C)C(=O)N[C@@H](CCCNC(=N)N)C(=O)N[C@@H](CC(C)C)C(=O)N[C@@H](CO)C(=O)O)[C@@H](C)CC (H-AKKIILRLS-OH) | inactive |
| CC[C@H](C)[C@H](NC(=O)CNC(=O)[C@H](CC(C)C)NC(=O)[C@H](CC(C)C)NC(=O)[C@H](CO)NC(=O)[C@H](CC(C)C)NC(=O)[C@@H](NC(=O)[C@H](CCC(N)=O)NC(=O)[C@@H](N)CC(N)=O)[C@@H](C)CC)C(=O)O (H-NQILSLLGI-OH) | inactive |
